Measured values reported in US4758558A, “N-(substituted)-[7-(2-cyanoacetamido)cephalosporanic]amide derivatives having antibiotic utility” (priority 1982, dated 1988).

Legend:
[1] = test system: Escherichia coli IFO 12734; assay: Antibacterial activity in vitro (MIC) against Escherichia coli; format: cell-based; settings: IFO12734, Mueller-Hinton agar, 18 to 24 hours, 37° C., read-out: MIC (minimum growth inhibiting concentration) against Escherichia coli
Method: (§1) (c) Anti-bacterial activity (in vitro):
(§2) Minimum concentration of the present compound inhibiting the growth of the following bacteria was determined according to the standard procedures of Japan Society of Chemotherapy:
Escherichia coli IFO 12734 and
(§3) Determination of the antibacterial activity of the present compound produced in Examples 1 to 18, respectively was carried out according to the standard procedures of Japan Society of Chemotherapy for finding MIC (the minimum concentration of a specimen to inhibit the growth of a species of bacteria).
(§4) A series of diluted solutions of each of the present compound were mixed with 9 times by weight of Mueller-Hinton's culture medium as the culture medium for determining the sensitivity of a bacterial species, and flat agar culture plates were prepared by using the thus obtained mixture.
(§5) Each of the liquids respectively containing one of the bacterial species shown in Table 2 was smeared onto each of the thus prepared flat agar culture plates with a platinum loop, in length of about 2 cm, and the thus treated plates were incubated for 18 to 24 hours at 37° C. Thereafter, by observing the growth state of each bacterial species on the cultured plates, the minimum concentration of each compound completely inhibiting the growth of each bacterial species was found.

[2] = test system: a species of Bacteroides; assay: Effect on intestinal bacteria: number of a sp. of Bacteroides in feces; format: in vivo, ICR mice; settings: mouse, in vivo, po, 500 mg/kg/day
Method: (§6) (b) Effect on the intestinal bacterial colonies: […]
(§7) Effects of the present compound on intestinal bacteria
(§8) Each of the present compounds respectively produced in Examples 1 to 18 was orally administered continuously for 2 days at a daily dose rate of 500 mg/kg body weight to each of five female ICR mice of each group after 6 weeks of their birth.
(§9) Each of the two fecal specimens respectively collected from each mouse before and after one day of the administration was diluted with 100 times by weight of an anaerobic diluent (a phosphoric acid buffer solution) and was ground in a mortar, and 0.1 ml of the thus ground material was smeared on each of the following culture media for the following bacteria, and the thus inoculated culture media were incubated under the following conditions. Thereafter, the number of the following bacteria in each of the thus cultured media was determined.
a species of Bacteroides
NBGT agar 37° C., 5 days, […]

[3] = test system: a species of Streptococcus; assay: Effect on intestinal bacteria: number of a sp. of Streptococcus in feces; format: in vivo, ICR mice; settings: mouse, in vivo, po, 500 mg/kg/day
Method: as §6, §7, §8, §9
a species of Streptococcus
TATAC agar 37° C., one day, […]

[4] = test system: a species of Lactobacillus; assay: Effect on intestinal bacteria: number of a sp. of Lactobacillus in feces; format: in vivo, ICR mice; settings: mouse, in vivo, po, 500 mg/kg/day
Method: as §6, §7, §8, §9
a species of Lactobacillus
LBS agar 37° C., 5 days, […]

[5] = test system: Pseudomonas aeruginosa; assay: Effect on intestinal bacteria: number of Pseudomonas aeruginosa in feces; format: in vivo, ICR mice; settings: mouse, in vivo, po, 500 mg/kg/day
Method: as §7, §8, §9
NAC agar 37° C., one day, […]

[6] = test system: Escherichia coli; assay: Effect on intestinal bacteria: number of Escherichia coli in feces; format: in vivo, ICR mice; settings: after oral administration for 2 days, 500 mg/kg/day, female ICR mice; before: 6.4
Method: (b) Effect on the intestinal bacterial colonies:
[…] Each portion of the two kinds of the feces was cultured at 25° C. or 37° C. in a variety of culture medium for one to five days to see the state of Escherichia coli, Pseudomonas aeruginosa, a Streptococcus species, a Lactobacillus species, Lactobacillus bifidus and a Bacteroides species in the culture medium.
as §7
Each of the two fecal […] by weight of an anaerobic diluent (a phosphoric acid buffer solution) and was ground in a mortar, and 0.1 ml of the thus ground material was smeared on each of the following culture media for the following bacteria, and the thus inoculated culture media were incubated under the following conditions. Thereafter, the number of the following bacteria in each of the thus cultured media was determined.

[7] = test system: Staphylococcus aureus IAM 1011; assay: Antibacterial activity in vitro (MIC) against Staphylococcus aureus; format: cell-based; settings: IAM1011, Mueller-Hinton agar, 18 to 24 hours, 37° C., read-out: MIC (minimum growth inhibiting concentration) against Staphylococcus aureus
Method: as §1, §2
Staphylococcus aureus IAM 1011
as §3, §4, §5

[8] = test system: Lactobacillus bifidus; assay: Effect on intestinal bacteria: number of Lactobacillus bifidus in feces; format: in vivo, ICR mice; settings: mouse, in vivo, po, 500 mg/kg/day
Method: as §6, §7, §8, §9
BS agar 37° C., 5 days, […]

| Structure (SMILES) | MIC [1] [mg/L] | Number of a sp. of Bacterioides after the administration [2] | Number of a sp. of Streptococcus after the administration [3] | Number of a sp. of Lactobacillus after the administration [4] | Number of Pseudomonas aeruginosa after the administration [5] | Number of Escherichia coli after the administration [6] | MIC [7] [mg/L] | Number of Lactobacillus bifidus after the administration [8] |
| --- | --- | --- | --- | --- | --- | --- | --- | --- |
| COC(=O)c1ccc(NC(=O)C2=C(COC(C)=O)CSC3C(NC(=O)CC#N)C(=O)N23)cc1 (stereo not shown) [Example 7, N-(4-carbomethoxyphenyl)-[7-(2-cyanoacetamido)cephalosporanic]amide] | ≥ 100 | 8.7 Log10 (number of bacteria/g feces) | 6.7 Log10 (number of bacteria/g feces) | 9.0 Log10 (number of bacteria/g feces) | < 3.0 Log10 (number of bacteria/g feces) | 6.5 Log10 (number of bacteria/g feces) | ≥ 100 | 8.3 Log10 (number of bacteria/g feces) |
| COC(=O)Cc1ccc(NC(=O)C2=C(COC(C)=O)CSC3C(NC(=O)CC#N)C(=O)N23)cc1 (stereo not shown) [Example 8, N-(4-carbomethoxymethylphenyl)-7-[(2-cyanoacetamido)cephalosporanic]amide] | ≥ 100 | 8.9 Log10 (number of bacteria/g feces) | 6.6 Log10 (number of bacteria/g feces) | 9.1 Log10 (number of bacteria/g feces) | < 3.0 Log10 (number of bacteria/g feces) | 6.6 Log10 (number of bacteria/g feces) | ≥ 100 | 8.4 Log10 (number of bacteria/g feces) |
| COC(=O)CNC(=O)c1ccc(NC(=O)C2=C(COC(C)=O)CSC3C(NC(=O)CC#N)C(=O)N23)cc1 (stereo not shown) [Example 9, N-(4-carbomethoxymethylcarbamoylphenyl)-[7-(2-cyanoacetamido)cephalosporanic]amide] | ≥ 100 | 8.5 Log10 (number of bacteria/g feces) | 6.7 Log10 (number of bacteria/g feces) | 8.9 Log10 (number of bacteria/g feces) | < 3.0 Log10 (number of bacteria/g feces) | 6.5 Log10 (number of bacteria/g feces) | ≥ 100 | 8.4 Log10 (number of bacteria/g feces) |
| CC(=O)OCC1=C(C(=O)Nc2ccc(C(N)=O)cn2)N2C(=O)C(NC(=O)CC#N)C2SC1 (stereo not shown) [Example 11, N-(nicotinic amido)-[7-(2-cyanoacetamido)cephalosporanic]amide] | ≥ 100 | 8.6 Log10 (number of bacteria/g feces) | 6.7 Log10 (number of bacteria/g feces) | 9.1 Log10 (number of bacteria/g feces) | < 3.0 Log10 (number of bacteria/g feces) | 6.8 Log10 (number of bacteria/g feces) | ≥ 100 | 8.2 Log10 (number of bacteria/g feces) |
| Cc1nnc(SCC2=C(C(=O)Nc3ccc(C(=O)O)cc3)N3C(=O)C(NC(=O)Cn4cnnn4)C3SC2)s1 (stereo not shown) [Example 12, N-(4-carboxyphenyl)-{7-(1-1H-tetrazolylacetamido)-3-[2-(5-methyl-1,3,4-thiadiaziolyl)thiomethyl]-3-cephem-4-carboxylic}amide] | ≥ 25 | 8.8 Log10 (number of bacteria/g feces) | 6.7 Log10 (number of bacteria/g feces) | 8.9 Log10 (number of bacteria/g feces) | < 3.0 Log10 (number of bacteria/g feces) | 6.5 Log10 (number of bacteria/g feces) | ≥ 1.56 | 8.2 Log10 (number of bacteria/g feces) |
| COC(=O)Cc1ccc(NC(=O)C2=C(CSc3nnc(C)s3)CSC3C(NC(=O)Cn4cnnn4)C(=O)N23)cc1 (stereo not shown) [Example 14, N-(4-carbomethoxymethylphenyl)-{7-(1-1H-tetrazolylacetamido)-3-[2-(5-methyl-1,3,4-thiadiazolyl)thiomethyl]-3-cephem-4-carboxylic}amide] | ≥ 100 | 8.4 Log10 (number of bacteria/g feces) | 6.6 Log10 (number of bacteria/g feces) | 9.0 Log10 (number of bacteria/g feces) | < 3.0 Log10 (number of bacteria/g feces) | 6.4 Log10 (number of bacteria/g feces) | ≥ 12.5 | 8.2 Log10 (number of bacteria/g feces) |
| COC(=O)CNC(=O)c1ccc(NC(=O)C2=C(CSc3nnc(C)s3)CSC3C(NC(=O)Cn4cnnn4)C(=O)N23)cc1 (stereo not shown) [Example 15, N-(4-carbomethoxymethylcarbamoylphenyl)-{7-(1-1H-tetrazolylacetamido)-3-[2-(5-methyl-1,3,4-thiadiazolyl)thiomethyl]-3-cephem-4-carboxylic}amide] | ≥ 100 | 8.2 Log10 (number of bacteria/g feces) | 6.8 Log10 (number of bacteria/g feces) | 9.1 Log10 (number of bacteria/g feces) | < 3.0 Log10 (number of bacteria/g feces) | 6.5 Log10 (number of bacteria/g feces) | ≥ 12.5 | 8.2 Log10 (number of bacteria/g feces) |
| Cc1ccc(NC(=O)C2=C(CSc3nnc(C)s3)CSC3C(NC(=O)Cn4cnnn4)C(=O)N23)cc1 (stereo not shown) [Example 16, N-(4-methylphenyl)-{7-(1-1H-tetrazolylacetamido)-3-[2-(5-methyl-1,3,4-thiadiazolyl)thiomethyl]-3-cephem-4-carboxylic}amide] | ≥ 100 | 8.1 Log10 (number of bacteria/g feces) | 6.5 Log10 (number of bacteria/g feces) | 9.2 Log10 (number of bacteria/g feces) | < 3.0 Log10 (number of bacteria/g feces) | 6.5 Log10 (number of bacteria/g feces) | ≥ 12.5 | 8.3 Log10 (number of bacteria/g feces) |
